Read-outs that look alike come from different tables or passages of the source.
Assays:
Experiment in all cases: KinomeScan kinase panel, single concentration 10 µM
Type in all cases: binding
KinomeScan kinase panel [1] = molecular target: T1, KinomeScan kinase panel (Homo sapiens, UniProt O75385); settings: kinase ULK1; 10 µM
T1 construct: purchased DiscoveRx (KinomeScan)
T1 sequence (O75385 1-1050): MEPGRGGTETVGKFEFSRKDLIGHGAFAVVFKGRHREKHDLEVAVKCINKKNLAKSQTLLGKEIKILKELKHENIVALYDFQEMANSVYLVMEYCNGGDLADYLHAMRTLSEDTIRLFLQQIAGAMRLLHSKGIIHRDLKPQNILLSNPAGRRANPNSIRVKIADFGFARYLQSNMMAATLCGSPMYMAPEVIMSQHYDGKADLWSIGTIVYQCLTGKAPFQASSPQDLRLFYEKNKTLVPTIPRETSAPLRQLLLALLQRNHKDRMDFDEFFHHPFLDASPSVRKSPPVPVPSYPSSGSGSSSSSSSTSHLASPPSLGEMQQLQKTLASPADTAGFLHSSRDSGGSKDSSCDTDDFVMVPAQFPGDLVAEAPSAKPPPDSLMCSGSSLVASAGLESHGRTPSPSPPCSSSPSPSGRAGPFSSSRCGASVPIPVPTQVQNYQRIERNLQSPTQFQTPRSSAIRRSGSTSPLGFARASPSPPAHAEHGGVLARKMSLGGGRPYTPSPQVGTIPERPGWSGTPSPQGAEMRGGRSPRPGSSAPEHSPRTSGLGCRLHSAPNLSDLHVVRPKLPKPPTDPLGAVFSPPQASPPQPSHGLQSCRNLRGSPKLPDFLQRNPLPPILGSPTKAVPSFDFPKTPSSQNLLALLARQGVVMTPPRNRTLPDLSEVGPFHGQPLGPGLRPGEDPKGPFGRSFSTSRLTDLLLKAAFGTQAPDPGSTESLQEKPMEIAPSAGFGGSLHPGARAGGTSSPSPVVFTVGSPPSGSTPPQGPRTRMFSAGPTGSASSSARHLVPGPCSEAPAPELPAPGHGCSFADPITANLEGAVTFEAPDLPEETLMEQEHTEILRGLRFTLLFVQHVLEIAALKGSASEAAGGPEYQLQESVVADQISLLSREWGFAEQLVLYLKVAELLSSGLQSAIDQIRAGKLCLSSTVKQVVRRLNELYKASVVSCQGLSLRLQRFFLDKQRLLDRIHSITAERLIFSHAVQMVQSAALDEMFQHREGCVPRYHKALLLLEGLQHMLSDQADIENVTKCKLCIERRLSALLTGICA

KinomeScan kinase panel [2] = molecular target: T2, KinomeScan kinase panel (Homo sapiens, UniProt P00519, M351T); settings: 10 µM, read-out: score (%)
T2 construct: purchased DiscoveRx (KinomeScan)

KinomeScan kinase panel [3] = molecular target: T3, KinomeScan kinase panel (Homo sapiens, UniProt P10721, T670I/V559D); settings: KIT(V559D.T670I), 10 µM; read-out: score (%)
T3 construct: purchased DiscoveRx (KinomeScan)

KinomeScan kinase panel [4] = molecular target: T4, KinomeScan kinase panel (Homo sapiens, UniProt P19784); settings: CSNK2A2, 10 µM; read-out: score (%)
T4 construct: purchased DiscoveRx (KinomeScan)

KinomeScan kinase panel [5] = molecular target: T5, KinomeScan kinase panel (Homo sapiens, UniProt P52564); settings: MEK6, 10 µM; read-out: score (%)
T5 construct: purchased DiscoveRx (KinomeScan)
T5 sequence (P52564 1-334): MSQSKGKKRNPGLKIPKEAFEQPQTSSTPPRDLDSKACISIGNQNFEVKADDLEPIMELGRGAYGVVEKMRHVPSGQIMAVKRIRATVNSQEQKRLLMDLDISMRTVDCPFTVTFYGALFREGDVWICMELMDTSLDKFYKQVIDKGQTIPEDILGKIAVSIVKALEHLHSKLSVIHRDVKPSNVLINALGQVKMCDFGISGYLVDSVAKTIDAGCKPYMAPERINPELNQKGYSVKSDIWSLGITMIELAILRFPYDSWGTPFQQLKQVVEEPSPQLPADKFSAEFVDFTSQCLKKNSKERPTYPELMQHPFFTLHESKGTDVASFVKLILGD

KinomeScan kinase panel [6] = molecular target: T6, KinomeScan kinase panel (Homo sapiens, UniProt Q02750); settings: MEK1, 10 µM; read-out: score (%)
T6 construct: purchased DiscoveRx (KinomeScan)

KinomeScan kinase panel [7] = molecular target: T7, KinomeScan kinase panel (Homo sapiens, UniProt Q09013); settings: DMPK, 10 µM; read-out: score (%)
T7 construct: purchased DiscoveRx (KinomeScan)
T7 sequence (Q09013 1-629): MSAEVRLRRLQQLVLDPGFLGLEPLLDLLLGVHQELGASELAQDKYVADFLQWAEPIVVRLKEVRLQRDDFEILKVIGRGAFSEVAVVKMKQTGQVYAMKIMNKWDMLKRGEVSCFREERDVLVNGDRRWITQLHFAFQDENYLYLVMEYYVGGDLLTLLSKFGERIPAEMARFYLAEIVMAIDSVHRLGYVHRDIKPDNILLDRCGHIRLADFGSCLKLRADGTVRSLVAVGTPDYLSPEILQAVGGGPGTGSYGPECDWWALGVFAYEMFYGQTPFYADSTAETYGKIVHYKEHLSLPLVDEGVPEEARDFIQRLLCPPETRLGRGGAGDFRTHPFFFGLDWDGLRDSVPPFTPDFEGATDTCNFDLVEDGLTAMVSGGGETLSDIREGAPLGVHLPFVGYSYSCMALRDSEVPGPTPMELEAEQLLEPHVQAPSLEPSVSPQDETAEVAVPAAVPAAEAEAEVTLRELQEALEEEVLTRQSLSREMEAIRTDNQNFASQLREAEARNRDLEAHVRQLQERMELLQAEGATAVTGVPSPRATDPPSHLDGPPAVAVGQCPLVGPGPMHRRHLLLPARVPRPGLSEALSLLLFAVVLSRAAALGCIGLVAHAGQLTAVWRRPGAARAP

KinomeScan kinase panel [8] = molecular target: T8, KinomeScan kinase panel (Homo sapiens, UniProt Q8N752); settings: CSNK1A1L, 10 µM; read-out: score (%)
T8 construct: purchased DiscoveRx (KinomeScan)
T8 sequence (Q8N752 1-337): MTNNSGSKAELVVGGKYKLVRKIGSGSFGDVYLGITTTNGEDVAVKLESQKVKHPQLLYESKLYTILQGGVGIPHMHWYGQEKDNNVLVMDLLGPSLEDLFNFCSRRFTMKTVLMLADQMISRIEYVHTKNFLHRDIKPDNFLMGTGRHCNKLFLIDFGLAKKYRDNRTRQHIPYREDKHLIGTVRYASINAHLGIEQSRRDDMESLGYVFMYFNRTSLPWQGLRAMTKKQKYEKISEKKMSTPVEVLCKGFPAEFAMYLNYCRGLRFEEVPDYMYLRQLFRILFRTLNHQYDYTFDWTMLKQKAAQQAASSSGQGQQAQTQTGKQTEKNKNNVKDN

T3 sequence (P10721 26-976 V559D/T670I): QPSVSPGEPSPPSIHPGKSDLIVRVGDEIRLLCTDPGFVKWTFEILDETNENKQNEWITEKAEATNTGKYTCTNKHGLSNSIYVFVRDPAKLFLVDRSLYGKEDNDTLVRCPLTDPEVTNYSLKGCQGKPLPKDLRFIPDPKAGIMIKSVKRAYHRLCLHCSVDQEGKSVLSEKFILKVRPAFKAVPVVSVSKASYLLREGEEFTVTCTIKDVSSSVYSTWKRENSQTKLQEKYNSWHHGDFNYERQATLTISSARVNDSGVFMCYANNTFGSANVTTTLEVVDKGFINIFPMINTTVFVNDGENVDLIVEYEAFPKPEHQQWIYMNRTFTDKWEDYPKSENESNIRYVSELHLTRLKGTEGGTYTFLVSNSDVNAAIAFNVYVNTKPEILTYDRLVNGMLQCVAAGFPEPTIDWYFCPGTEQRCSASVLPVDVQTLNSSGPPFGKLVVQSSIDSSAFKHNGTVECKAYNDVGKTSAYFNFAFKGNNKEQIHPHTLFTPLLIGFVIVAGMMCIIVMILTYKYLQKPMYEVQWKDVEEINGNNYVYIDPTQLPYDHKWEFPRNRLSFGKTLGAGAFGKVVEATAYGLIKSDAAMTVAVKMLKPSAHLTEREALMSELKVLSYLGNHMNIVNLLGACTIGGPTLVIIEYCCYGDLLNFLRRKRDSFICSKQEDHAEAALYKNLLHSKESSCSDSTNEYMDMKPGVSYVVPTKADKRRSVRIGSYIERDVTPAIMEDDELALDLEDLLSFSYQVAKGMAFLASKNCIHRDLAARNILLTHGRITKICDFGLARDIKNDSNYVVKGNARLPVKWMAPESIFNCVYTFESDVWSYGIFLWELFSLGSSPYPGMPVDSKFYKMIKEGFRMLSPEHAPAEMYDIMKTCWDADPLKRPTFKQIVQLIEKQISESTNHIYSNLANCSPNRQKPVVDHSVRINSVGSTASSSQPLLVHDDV
T6 sequence (Q02750 whole entry): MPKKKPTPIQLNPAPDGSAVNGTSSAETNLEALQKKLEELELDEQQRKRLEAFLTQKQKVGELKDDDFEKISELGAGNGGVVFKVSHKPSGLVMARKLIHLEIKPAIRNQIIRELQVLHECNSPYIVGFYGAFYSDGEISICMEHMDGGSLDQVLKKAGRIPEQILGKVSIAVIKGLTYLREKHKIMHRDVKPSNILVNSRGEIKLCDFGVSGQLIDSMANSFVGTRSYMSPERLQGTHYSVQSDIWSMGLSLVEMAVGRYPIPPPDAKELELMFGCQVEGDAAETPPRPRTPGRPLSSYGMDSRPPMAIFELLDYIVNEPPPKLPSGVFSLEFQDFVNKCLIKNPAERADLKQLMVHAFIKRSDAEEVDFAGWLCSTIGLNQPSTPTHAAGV
T4 sequence (P19784 whole entry): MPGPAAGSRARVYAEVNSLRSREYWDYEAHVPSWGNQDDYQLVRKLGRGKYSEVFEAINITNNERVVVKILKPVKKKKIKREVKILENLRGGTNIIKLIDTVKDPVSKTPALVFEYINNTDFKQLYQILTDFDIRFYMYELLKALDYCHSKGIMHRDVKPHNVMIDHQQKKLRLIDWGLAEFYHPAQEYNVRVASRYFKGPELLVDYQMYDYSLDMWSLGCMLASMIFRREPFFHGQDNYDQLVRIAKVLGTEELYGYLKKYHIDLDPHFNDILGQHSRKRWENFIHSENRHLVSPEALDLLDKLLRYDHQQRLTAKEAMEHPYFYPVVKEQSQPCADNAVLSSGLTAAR

Which “score (%)” value (KinomeScan kinase panel [1]) does the source give for `CCN1CCN(Cc2ccc(NC(=O)c3ccc(C)c(NC(=O)c4cncc(-c5cccs5)c4)c3)cc2C(F)(F)F)CC1` [ALW-II-41-27] here?
Its value is “nb (Hits values higher than 30% were considered negative (no binding: nb))”.

What about the remaining binding at 10 µM (KinomeScan kinase panel [2]; ABL1(M351T)) of the same molecule?
Its remaining binding at 10 µM is 0.55%.

What about the remaining binding at 10 µM (KinomeScan kinase panel [3]) of the same molecule?
Its remaining binding at 10 µM is 0.05%.

And the remaining binding at 10 µM (KinomeScan kinase panel [4])?
Its remaining binding at 10 µM is > 30%.

And the remaining binding at 10 µM (KinomeScan kinase panel [5])?
Its remaining binding at 10 µM is > 30%.

What about the remaining binding at 10 µM (KinomeScan kinase panel [6]) of the same molecule?
Its remaining binding at 10 µM is > 30%.

What about the remaining binding at 10 µM (KinomeScan kinase panel [7]) of the same molecule?
Its remaining binding at 10 µM is > 30%.

And the remaining binding at 10 µM (KinomeScan kinase panel [8])?
The remaining binding at 10 µM was > 30%.

How did the “score (%)” value (KinomeScan kinase panel [1]) turn out when `CCN1CCN(Cc2ccc(NC(=O)c3ccc(C)c(/C=C/c4cnc5[nH]ccc5c4Cl)c3)cc2C(F)(F)F)CC1` [HG-6-63-01, (E)-3-(2-(4-chloro-1H-pyrrolo[2,3-b]pyridin-5-yl)vinyl)-N-(4-((4-ethylpiperazin-1-yl)methyl)-3-(trifluoromethyl)phenyl)-4-methylbenzamide] was run?
The value was 8.7%.

What about the remaining binding at 10 µM (KinomeScan kinase panel [2]; ABL1(M351T)) of the same molecule?
Its remaining binding at 10 µM is 0.1%.

And the remaining binding at 10 µM (KinomeScan kinase panel [3])?
The remaining binding at 10 µM was 0%.

And the remaining binding at 10 µM (KinomeScan kinase panel [4])?
The remaining binding at 10 µM was > 30%.

And the remaining binding at 10 µM (KinomeScan kinase panel [5])?
The remaining binding at 10 µM was > 30%.

What about the remaining binding at 10 µM (KinomeScan kinase panel [6]) of the same molecule?
Its remaining binding at 10 µM is > 30%.

And the remaining binding at 10 µM (KinomeScan kinase panel [7])?
Its remaining binding at 10 µM is > 30%.

And the remaining binding at 10 µM (KinomeScan kinase panel [8])?
Its remaining binding at 10 µM is > 30%.

Which results are given for `CCN1CCN(Cc2ccc(NC(=O)c3ccc(C)c(C#Cc4cccnc4)c3)cc2C(F)(F)F)CC1` [XMD15-44]?
score (%) (KinomeScan kinase panel [1]): 24%; remaining binding at 10 µM (KinomeScan kinase panel [2]; ABL1(M351T)-phosphorylated): 2.6%; remaining binding at 10 µM (KinomeScan kinase panel [3]): 0%; remaining binding at 10 µM (KinomeScan kinase panel [4]): > 30%; remaining binding at 10 µM (KinomeScan kinase panel [5]): > 30%; remaining binding at 10 µM (KinomeScan kinase panel [6]): > 30%; remaining binding at 10 µM (KinomeScan kinase panel [7]): > 30%; remaining binding at 10 µM (KinomeScan kinase panel [8]): > 30%
